Experimental data taken from US9409975B2, “Antibody binding microbial heparin binding motif to retard or prevent microbial biofilm formation on implanted medical devices” (priority 2012, dated 2016).

Tested on: C. albicans
Assay: Heparin-binding ELISA assay: C. albicans binding to solid-phase heparin, desulfated heparin analogs, chondroitin sulfate or dermatan sulfate
Type: cell-based, Candida albicans
Conditions: equimolar amounts with respect to heparin
Description: To measure the binding of C. albicans to solid-phase heparin, a heparin-binding ELISA assay was developed, as follows. A single colony of each C. albicans wild type or mutant strain from a YPD plate was inoculated into 3 ml YPD medium and incubated overnight at 30° C. with shaking at 225 rpm. Sigma heparin (fresh solution made daily), diluted to 25 units/ml in autoclaved, sterile-filtered PBS was added as 0.1 ml aliquots to each well of an allyl amine-coated 96-well heparin binding microtiter plate (BD Biosciences). The plate was incubated at room temperature overnight in the dark (50). In the morning, the plate was washed with acetate buffer (100 mM NaCl, […], 0.2% Tween 20, pH 7.2), incubated with 3% bovine serum albumin (BSA) in PBS at 30° C. for 1 hour, then washed with PBS. In the meantime, overnight cultures of C. albicans were subcultured by dilution to OD600 of 0.2 in 25 ml of YPD, and grown at 30° C. to mid-log phase (OD600 0.6-0.7). […] After 45 minutes, absorbance at 595 nm was read on a Beckman Coulter DTX 880. […]
The ELISA assay used a commercially available 96-well microtiter plate coated with polymerized allylamine (BD Biosciences) (27), in which wells were inoculated with 2.5 units (12.5 μg) heparin in 100 μl phosphate buffered saline (PBS) per well. […] The color change was read spectrophotometrically at absorbance of 595 nm.

Substance: dermatan sulfate
- binding of C. albicans versus binding to heparin, in words: reduced

Substance: chondroitin sulfate
- binding of C. albicans versus binding to heparin, in words: equivalent
